Target: T1, human GPBAR1 receptor (Homo sapiens, UniProt Q8TDU6)
T1 construct: expressed in transfected cells
T1 sequence (Q8TDU6 1-330): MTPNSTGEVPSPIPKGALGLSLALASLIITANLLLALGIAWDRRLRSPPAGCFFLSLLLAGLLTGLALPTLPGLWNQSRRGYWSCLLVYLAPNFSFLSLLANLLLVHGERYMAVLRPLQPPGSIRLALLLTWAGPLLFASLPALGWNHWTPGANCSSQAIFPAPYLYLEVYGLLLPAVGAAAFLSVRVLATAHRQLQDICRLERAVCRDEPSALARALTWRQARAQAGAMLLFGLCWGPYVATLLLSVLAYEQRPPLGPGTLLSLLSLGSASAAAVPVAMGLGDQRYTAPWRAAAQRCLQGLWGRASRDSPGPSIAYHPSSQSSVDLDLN
Test: functional cAMP assay in CHO-dhfr(minus) cells expressing human GPBAR1 receptors
Type: cell-based
Conditions: human EC50, functional cAMP assay, 30 min at 30° C.
Experimental: The final clone was verified by DNA sequence analysis. The plasmid was transfected into CHO cells deficient in dihydrofolate reductase activity (CHO-dhfr−) using Lipofectamine plus (Invitrogen). Clones were isolated in limited dilution conditions and identified by activities in the cAMP assay using lithocholic acid as agonist.
The growth medium was exchanged with Krebs Ringer Bicarbonate buffer with 1 mM IBMX and incubated at 30° C. for 30 min. Compounds were added to a final assay volume of 100 μl and incubated for 30 min at 30° C. […] The time-resolved energy transfer is measured by a TRF reader (Evotec Technologies GmbH, Hamburg Germany), equipped with a ND:YAG laser as excitation source.
EC50 values were determined using Activity Base analysis (ID Business Solution, Limited). […] Specificity for GPBAR1 was tested in non-transfected CHO cells in the same assay as above.

`Cc1cc(C(CC(c2ccc(-c3ccc(C(=O)O)c(F)c3)cc2)c2ccccc2C)=NO)ccn1` (racemic) [Example 112, 3-Fluoro-4′-[3-[hydroxyimino]-3-(2-methyl-pyridin-4-yl)-1-o-tolyl-propyl]-biphenyl-4-carboxylic acid] was tested, and the EC50 was 16 nM.
Molecule `Cc1cc(C(CC(c2ccc(-c3ccc(F)c(C(=O)O)c3)cc2)c2ccccc2C)=NO)ccn1` (racemic) [Example 113, 4-Fluoro-4′-[3-[hydroxyimino]-3-(2-methyl-pyridin-4-yl)-1-o-tolyl-propyl]-biphenyl-3-carboxylic acid] has an EC50 of 215 nM.
Molecule `CC(C)CC(CC(=NO)c1ccncc1)c1ccc(Br)cc1` (racemic) [Example 114, 3-(4-Bromo-phenyl)-5-methyl-1-pyridin-4-yl-hexan-1-one oxime] has an EC50 of 1080 nM.
In the case of `Cc1cc(C(CC(c2ccc(CCCCC(=O)O)cc2)c2ccccc2C)=NO)ccn1` (racemic) [Example 115, 5-{4-[3-[Hydroxyimino]-3-(2-methyl-pyridin-4-yl)-1-o-tolyl-propyl]-phenyl}-pentanoic acid], the EC50 is reported as 41 nM.
With `Cc1ccccc1C(CC(=NO)c1ccnc(Cl)c1)c1ccc(Br)cc1` (racemic) [Example 119, 3-(4-Bromo-phenyl)-1-(2-chloro-pyridin-4-yl)-3-o-tolyl-propan-1-one oxime] the EC50 was 227 nM.
Molecule `Cc1ccccc1C(CC(=NO)c1cc(F)ncc1Cl)c1ccc(Br)cc1` (racemic) [Example 121, 3-(4-Bromo-phenyl)-1-(5-chloro-2-fluoro-pyridin-4-yl)-3-o-tolyl-propan-1-one oxime] has an EC50 of 24 nM.
`Cc1cnc(F)cc1C(CC(c1ccc(Br)cc1)c1ccccc1C)=NO` (racemic) [Example 124, 3-(4-Bromo-phenyl)-1-(2-fluoro-5-methyl-pyridin-4-yl)-3-o-tolyl-propan-1-one oxime] gave an EC50 of 17 nM.
For `Cc1ccccc1C(CC(=NO)c1ccc2ncccc2c1)c1ccc(Br)cc1` (racemic) [Example 125, 3-(4-Bromo-phenyl)-1-quinolin-6-yl-3-o-tolyl-propan-1-one oxime], the EC50 was 2210 nM.
`Cc1cc(C(CC(c2ccc(Br)cc2)c2ccccc2C)=NO)cc(F)n1` (racemic) [Example 126, 3-(4-Bromo-phenyl)-1-(2-fluoro-6-methyl-pyridin-4-yl)-3-o-tolyl-propan-1-one oxime] gave an EC50 of 61 nM.
In the case of `Cc1ccccc1C(CC(=NO)c1cc(Cl)ncc1F)c1ccc(Br)cc1` (racemic) [Example 127, 3-(4-Bromo-phenyl)-1-(2-chloro-5-fluoro-pyridin-4-yl)-3-o-tolyl-propan-1-one oxime], the EC50 is reported as 46 nM.
In the case of `Cc1cc(C(CC(c2ccc(Br)cc2)C(C)(C)C)=NO)ccn1` (racemic) [Example 129, 3-(4-Bromo-phenyl)-4,4-dimethyl-1-(2-methyl-pyridin-4-yl)-pentan-1-one oxime], the EC50 is reported as 591 nM.
`Cc1cnc(F)cc1C(CC(c1ccc(-c2ccc(C(=O)O)cc2)cc1)c1ccccc1C)=NO` (racemic) [Example 130, 4′-{3-(2-Fluoro-5-methyl-pyridin-4-yl)-3-[hydroxyimino]-1-o-tolyl-propyl}-biphenyl-4-carboxylic acid] was tested, and the EC50 was 87 nM.
`Cc1cc(C(=O)O)ccc1-c1ccc(C(C/C(=N\O)c2ccc(=O)n(C)c2)c2ccc(Cl)cc2Cl)cc1` (racemic) [Example 476, 4′-[1-(2,4-Dichloro-phenyl)-3-[(E)-hydroxyimino]-3-(1-methyl-6-oxo-1,6-dihydro-pyridin-3-yl)-propyl]-2-methyl-biphenyl-4-carboxylic acid] was tested, and the EC50 was 49 nM.
In the case of `Cc1ccccc1C(C/C(=N\O)c1ccc(=O)n(C)c1)c1ccc(C(=O)N[C@@H](CO)C(C)C)cc1` (single isomer, unassigned) [Example 306], the EC50 is reported as 511 nM.
Molecule `Cc1cc(Cl)ccc1[C@H](C/C(=N\O)c1ccc(=O)n(C)c1)c1ccc(-c2ccc(C(=O)O)cc2)cc1` (single isomer, unassigned) [Example 393, (+)-4′-[1-(4-Chloro-2-methyl-phenyl)-3-[(E)-hydroxyimino]-3-(1-methyl-6-oxo-1,6-dihydro-pyridin-3-yl)-propyl]-biphenyl-4-carboxylic acid; compound with triethylamine 1:0.9] has an EC50 of 95 nM.
For `Cc1cc(Cl)ccc1[C@@H](C/C(=N\O)c1ccc(=O)n(C)c1)c1ccc(-c2ccc(C(=O)O)cc2)cc1` (single isomer, unassigned) [Example 394, (−)-4′-[1-(4-Chloro-2-methyl-phenyl)-3-[(E)-hydroxyimino]-3-(1-methyl-6-oxo-1,6-dihydro-pyridin-3-yl)-propyl]-biphenyl-4-carboxylic acid; compound with triethylamine 1:0.85], the EC50 was 302 nM.
`Cc1cc(/C(CC(c2ccc(-c3ccc(C(=O)O)cc3)cc2)c2ccc(Cl)cc2C)=N/O)ccn1` (single isomer, unassigned) [Example 396, (−)-4′-[1-(4-Chloro-2-methyl-phenyl)-3-[(E)-hydroxyimino]-3-(2-methyl-pyridin-4-yl)-propyl]-biphenyl-4-carboxylic acid; compound with triethylamine 1:0.7] was tested, and the EC50 was 29 nM.
In the case of `Cc1cc(/C(C[C@H](c2ccc(-c3ccc(C(=O)O)cc3)cc2)c2ccc(F)cc2C)=N/O)ccn1` (single isomer, unassigned) [Example 397, (+)-4′-[1-(4-Fluoro-2-methyl-phenyl)-3-[(E)-hydroxyimino]-3-(2-methyl-pyridin-4-yl)-propyl]-biphenyl-4-carboxylic acid; compound with triethylamine 1:0.75], the EC50 is reported as 17 nM.
With `Cc1cc(/C(C[C@@H](c2ccc(-c3ccc(C(=O)O)cc3)cc2)c2ccc(F)cc2C)=N/O)ccn1` (single isomer, unassigned) [Example 398, (−)-4′-[1-(4-Fluoro-2-methyl-phenyl)-3-[(E)-hydroxyimino]-3-(2-methyl-pyridin-4-yl)-propyl]-biphenyl-4-carboxylic acid; compound with triethylamine 1:0.75] the EC50 was 3 nM.
Work on `Cc1cc(F)ccc1[C@H](C/C(=N\O)c1ccc(=O)n(C)c1)c1ccc(Br)cc1` (single isomer, unassigned) [Example 404, (−)-5-{3-(4-Bromo-phenyl)-3-(4-fluoro-2-methyl-phenyl)-1-[(E)-hydroxyimino]-propyl}-1-methyl-1H-pyridin-2-one] yielded an EC50 of 5 nM.
Molecule `Cc1cc(F)ccc1[C@@H](C/C(=N\O)c1ccc(=O)n(C)c1)c1ccc(Br)cc1` (single isomer, unassigned) [Example 405, (+)-5-{3-(4-Bromo-phenyl)-3-(4-fluoro-2-methyl-phenyl)-1-[(E)-hydroxyimino]-propyl}-1-methyl-1H-pyridin-2-one] has an EC50 of 8 nM.
Work on `Cc1cc(F)ccc1[C@H](C/C(=N\O)c1ccc(=O)n(C)c1)c1ccc(-c2ccc(S(N)(=O)=O)cc2)cc1` (single isomer, unassigned) [Example 406, (−)-4′-[1-(4-Fluoro-2-methyl-phenyl)-3-[(E)-hydroxyimino]-3-(1-methyl-6-oxo-1,6-dihydro-pyridin-3-yl)-propyl]-biphenyl-4-sulfonic acid amide] yielded an EC50 of 9 nM.
Work on `Cc1cc(F)ccc1[C@@H](C/C(=N\O)c1ccc(=O)n(C)c1)c1ccc(-c2ccc(S(N)(=O)=O)cc2)cc1` (single isomer, unassigned) [Example 407, (+)-4′-[1-(4-Fluoro-2-methyl-phenyl)-3-[(E)-hydroxyimino]-3-(1-methyl-6-oxo-1,6-dihydro-pyridin-3-yl)-propyl]-biphenyl-4-sulfonic acid amide] yielded an EC50 of 12 nM.
For `Cc1cc(Cl)ccc1[C@H](C/C(=N\O)c1ccc(=O)n(C)c1)c1ccc(-c2ccc(S(N)(=O)=O)cc2)cc1` (single isomer, unassigned) [Example 413, (−)-4′-[1-(4-Chloro-2-methyl-phenyl)-3-[(E)-hydroxyimino]-3-(1-methyl-6-oxo-1,6-dihydro-pyridin-3-yl)-propyl]-biphenyl-4-sulfonic acid amide], the EC50 was 18 nM.
Molecule `Cc1cc(Cl)ccc1[C@@H](C/C(=N\O)c1ccc(=O)n(C)c1)c1ccc(-c2ccc(S(N)(=O)=O)cc2)cc1` (single isomer, unassigned) [Example 414, (+)-4′-[1-(4-Chloro-2-methyl-phenyl)-3-[(E)-hydroxyimino]-3-(1-methyl-6-oxo-1,6-dihydro-pyridin-3-yl)-propyl]-biphenyl-4-sulfonic acid amide] has an EC50 of 18 nM.
In the case of `Cc1cc(Cl)ccc1[C@@H](C/C(=N\O)c1ccc(=O)n(C)c1)c1ccc(-c2ccc(NS(C)(=O)=O)cc2)cc1` (single isomer, unassigned) [Example 416, (+)-N-{4′-[1-(4-Chloro-2-methyl-phenyl)-3-[(E)-hydroxyimino]-3-(1-methyl-6-oxo-1,6-dihydro-pyridin-3-yl)-propyl]-biphenyl-4-yl}-methanesulfonamide], the EC50 is reported as 18 nM.
For `Cc1cc(/C(C[C@H](c2ccc(-c3nnc(CC(=O)O)o3)cc2)c2ccccc2C)=N/O)ccn1` (single isomer, unassigned) [Example 422, (5-{4-[(−)-3-[(E)-Hydroxyimino]-3-(2-methyl-pyridin-4-yl)-1-o-tolyl-propyl]-phenyl}-[1,3,4]oxadiazol-2-yl)-acetic acid], the EC50 was 11 nM.
